Assay results from paper PMC7607624 (Journal of nuclear medicine : official publication, Society …, 2013).

How the values were obtained:
[1] = design: species or system human; conditions: in vivo
[2] = design: species or system human; conditions: in vivo; remark: listed apart in the source
[3] = design: species or system human; conditions: in vivo; remark: listed apart in the source
[4] = design: species or system human; conditions: in vivo, iv
[5] = human, in vivo

(18S,21S,24S,27S,30S)-27-(2-carboxyethyl)-21-(carboxymethyl)-30-((2S,3R,4R,5R,6S)-6-((2-(4-(3-[F18]fluoropropyl)-1H-1,2,3-triazol-1-yl)acetamido)methyl)-3,4,5-trihydroxytetrahydro-2H-pyran-2-carboxamido)-24-isopropyl-18-methyl-17,20,23,26,29-pentaoxo-4,7,10,13-tetraoxa-16,19,22,25,28-pentaazadotriacontane-1,32-dioic acid [18F-CP-18]
Estimated organ dose per unit administered activity, Brain [1]: 2.4±0.6 μGy/MBq
Estimated organ dose per unit administered activity, Breasts [1]: 7.7±3.6 μGy/MBq
Estimated organ dose per unit administered activity, Heart Wall [1]: 10±0.8 μGy/MBq
Estimated organ dose per unit administered activity, Kidneys [1]: 39±10 μGy/MBq
Estimated organ dose per unit administered activity, Thymus [1]: 4.8±0.7 μGy/MBq
Estimated organ dose per unit administered activity, Thyroid [1]: 4.2±0.7 μGy/MBq
adult female phantom doses, higher than adult male phantom [1]: 20–34%
parent tracer in urine [2]: 21%
Normalized number of disintegrations, Brain [3]: 0.0089±0.0038 MBq-h/MBq administered
Normalized number of disintegrations, Breasts [3]: 0.015±0.0047 MBq-h/MBq administered
Normalized number of disintegrations, Heart Contents [3]: 0.026±0.0036 MBq-h/MBq administered
Normalized number of disintegrations, Kidneys [3]: 0.059±0.017 MBq-h/MBq administered
Normalized number of disintegrations, Liver [3]: 0.064±0.024 MBq-h/MBq administered
Normalized number of disintegrations, Remainder [3]: 0.82±0.14 MBq-h/MBq administered
Normalized number of disintegrations, Spleen [3]: 0.0090±0.0024 MBq-h/MBq administered
Normalized number of disintegrations, Testes [3]: 0.0057±0.0017 MBq-h/MBq administered
Normalized number of disintegrations, Urinary Bladder Wall (1.0-hr) [3]: 0.29±0.033 MBq-h/MBq administered
Normalized number of disintegrations, Urinary Bladder Wall (4.8-hr) [3]: 1.1±0.13 MBq-h/MBq administered
clearance half-time of activity from blood pool / plasma ([4]; human): ~ 30 minutes
percentage of plasma-borne activity in the form of 18F-CP-18 [4]: 99%
bladder uptake (percent administered activity) [5]: 16-27%
crossing of the blood-brain barrier [5]: did not appreciably cross the blood-brain barrier
kidney uptake (percent administered activity) [5]: 3.5-11%
liver uptake (percent administered activity) [5]: 3.2-5.7%
mean SUV, bladder [5]: approximately 65
mean SUV, heart [5]: ~1.5
mean SUV, kidneys [5]: ~6
mean SUV, liver [5]: ~1.5
renal system (kidneys and bladder together) uptake [5]: 22-31%
